Article PMC5457628, “Inhibitors of ubiquitin E3 ligase as potential new antimalarial drug leads” (BMC Pharmacology & Toxicology, 2017)
Like-named read-outs stand apart in the source and are kept apart here.

Key:
[1] = test system: P. falciparum W2 (CQ-resistant strain); test: Antimalarial SYBR Green I-based fluorescence assay, PfW2; assay type: cell-based; details: Plasmodium falciparum
Method: CQ-sensitive (D6, Sierra Leone) and -resistant (W2, Indochina) strains of P. falciparum cultures were obtained from Malaria Research and Reference Reagent Resource Center (MR4), USA and maintained at 5% hematocrit in complete culture medium (RPMI 1640 supplemented with 60 μg/mL amikacin, 27 mM NaHCO3 and 10% heat-inactivated normal human type A+ serum). The medium of the culture was replaced every 48 h, flushed with a gas mixture of 90% N2, 5% CO2 and 5% O2 and incubated at 37 °C.
CQ-sensitive P. falciparum D6 strain (Pf D6) and CQ-resistant P. falciparum W2 strain (Pf W2) were grown in RPMI 1640 medium supplemented with amikacin (60 μg/mL), NaHCO3 (27 mM) and 10% heat-inactivated normal human type A+ serum. Only ring stages of the parasite were counted and adjusted to 2% parasitemia with 2% hematocrit. Stock solutions (10 mM) of the test inhibitors were prepared in DMSO. The compounds were serially diluted in serum-free RPMI-1640 medium for testing at eight concentrations. The maximum concentrations of E3 ligase inhibitors and CQ used in the assay were 50 μM and 500 nM respectively. The plates were incubated at 37 °C in 5% CO2, 5% O2, and 90% N2 environment for 48, 72, 96 and 120 h. After incubation, SYBR green with RBC lysis buffer was added to each well, and the plates were incubated for 1 h in the dark at room temperature. The standard antimalarial agent, CQ was tested as the positive control, and DMSO was tested as vehicle control. Standard fluorescence was measured Fluostar Galaxy microplate reader (BMG Lab Technologies) at excitation wavelength of 485 nm and emission wavelength of 535 nm. The anti-malarial activity (expressed as IC50 values) was determined by the dose-response analysis with XLfit©.

[2] = test system: P. falciparum D6 (CQ-sensitive strain); test: Antimalarial SYBR Green I-based fluorescence assay, PfD6; assay type: cell-based
Method: The medium of the culture was replaced every 48 h, flushed with a gas mixture of 90% N2, 5% CO2 and 5% O2 and incubated at 37 °C.
Only ring stages of the parasite were counted and adjusted to 2% parasitemia with 2% hematocrit. Stock solutions (10 mM) of the test inhibitors were prepared in DMSO. […] The maximum concentrations of E3 ligase inhibitors and CQ used in the assay were 50 μM and 500 nM respectively. The plates were incubated at 37 °C in 5% CO2, 5% O2, and 90% N2 environment for 48, 72, 96 and 120 h. After incubation, SYBR green with RBC lysis buffer was added to each well, and the plates were incubated for 1 h in the dark at room temperature. The standard antimalarial agent, CQ was tested as the positive control, and DMSO was tested as vehicle control. […] The anti-malarial activity (expressed as IC50 values) was determined by the dose-response analysis with XLfit©.

[3] = test system: P. falciparum D6 strain (PfD6); test: Stage specific imaging analysis: parasitemia and differential stage counts in synchronized PfD6 culture (Giemsa smears); assay type: cell-based, Plasmodium falciparum; details: CQ 50 nM; for effect on parasitemia as compared to vehicle control: HLI 373 5 μM, Nutlin 3 35 μM; for overall parasitemia: synchronized PfD6, ~6% parasitemia at 0 h, JNJ 26854165 5 μM
Method: The stage-specific activity of the lead compounds was tested against Pf D6. […] The culture was synchronized by 5% sorbitol treatment as previously described. The synchronized culture of PfD6, with ~6% parasitemia and >90% of the parasite in ring stage, was used for these assays. Stock solutions (10 mM) of the test inhibitors were prepared in DMSO. […] The effect of the compounds was monitored after every 8 h (0, 8, 16, 24, 32, 40 and 48 h) by preparing thin smears of the infected erythrocytes. The slides were stained with Giemsa, and digital images of the parasite were captured with Nikon Eclipse microscope under bright field using NIS-element imaging software. The images were analyzed for the parasite stages and morphological changes (if any) in the parasite. The levels of parasitemia and differential parasitemia (relative percentage of different parasite stages) counts were also measured. At least one thousand erythrocytes (total- infected & uninfected) were counted from each slide for determination of the level of parasitemia and differential parasite stage counts.

[4] = In vitro cytotoxicity assay (AlamarBlue) against Vero cells; assay type: cell-based; details: African green monkey, Vero cells (kidney epithelial cells), mean ± SEM of duplicates, NC = not cytotoxic at highest concentration tested (50 μM inhibitors, 500 nM CQ), read-out: Vero Cell Cytotoxicity (IC50)
Method: The E3 ligase inhibitors were also tested against Vero cells (African green monkey kidney epithelial cells) and transformed non-dividing human monocytic (THP1) cells. The methods described earlier were used to measure cytotoxicity for Vero and THP1 cells. In brief, four days’ old Vero and THP1 cell cultures were diluted with RPMI medium to 25,000 cells/mL. Vero cells (100 μL per well) were seeded in a clear 96 well culture plate and incubated for 24 h at 37 °C in a 5% CO2 incubator to obtain confluent cells. Phorbol 12-myristate 13-acetate (PMA) (25 ng/mL) was added to THP1 cell culture to transform the cells to adherent macrophages. PMA treated THP1cells were dispensed into clear 96 well culture plates (200 μL/well; 25,000 cells/mL) and incubated at 37 °C in a 5% CO2 incubator for overnight. The test compounds were prepared in DMSO at 10 mM concentration. The compounds were serially diluted in RPMI medium with 2% FBS in the separate daughter plates, for testing at eight concentrations. The cells were washed with culture medium, replaced with the fresh medium and test compounds were added. The maximum concentration of E3 ligase inhibitors and CQ used in these assays were 50 μM and 500 nM respectively. DMSO was tested as vehicle control in these assays. The plates were incubated further in a CO2 incubator at 37 °C for 48 h. […]

[5] = In vitro cytotoxicity assay (AlamarBlue) against PMA-transformed THP1 cells; assay type: cell-based; details: human, PMA-transformed non-dividing THP1, mean ± SEM of duplicates, NC = not cytotoxic at highest concentration tested (50 μM inhibitors, 500 nM CQ), read-out: THP1 Cell Cytotoxicity (IC50)
Method: The E3 ligase inhibitors were also tested against Vero cells (African green monkey kidney epithelial cells) and transformed non-dividing human monocytic (THP1) cells. The methods described earlier were used to measure cytotoxicity for Vero and THP1 cells. In brief, four days’ old Vero and THP1 cell cultures were diluted with RPMI medium to 25,000 cells/mL. Vero cells (100 μL per well) were seeded in a clear 96 well culture plate and incubated for 24 h at 37 °C in a 5% CO2 incubator to obtain confluent cells. Phorbol 12-myristate 13-acetate (PMA) (25 ng/mL) was added to THP1 cell culture to transform the cells to adherent macrophages. PMA treated THP1cells were dispensed into clear 96 well culture plates (200 μL/well; 25,000 cells/mL) and incubated at 37 °C in a 5% CO2 incubator for overnight. The test compounds were prepared in DMSO at 10 mM concentration. The compounds were serially diluted in RPMI medium with 2% FBS in the separate daughter plates, for testing at eight concentrations. The cells were washed with culture medium, replaced with the fresh medium and test compounds were added. The maximum concentration of E3 ligase inhibitors and CQ used in these assays were 50 μM and 500 nM respectively. DMSO was tested as vehicle control in these assays. The plates were incubated further in a CO2 incubator at 37 °C for 48 h. After 48 h, 10 μL of AlamarBlue® was added to each well, and the plates were incubated in a CO2 incubator at 37 °C for overnight. […] IC50 values were computed by analyzing dose-response curves with XLfit©.

[6] = molecular target: MDM2; details: read-out: Ki, MDM 2 inhibitor; cited from earlier work
[7] = 40 h post-treatment, vehicle control 6.90
[8] = 48 h post-treatment, vehicle control 5.28%
[9] = W2, 48 h incubation, mean ± SEM of duplicates, NA = not active at highest concentration tested (50 μM inhibitors, 500 nM CQ), read-out: P. falciparum W2 (CQ-resistant strain) IC50
[10] = W2, 72 h incubation, mean ± SEM of duplicates, NA = not active at highest concentration tested (50 μM inhibitors, 500 nM CQ), read-out: P. falciparum W2 (CQ-resistant strain) IC50
[11] = W2, 96 h incubation, mean ± SEM of duplicates, NA = not active at highest concentration tested (50 μM inhibitors, 500 nM CQ), read-out: P. falciparum W2 (CQ-resistant strain) IC50
[12] = W2, 120 h incubation, mean ± SEM of duplicates, NA = not active at highest concentration tested (50 μM inhibitors, 500 nM CQ), read-out: P. falciparum W2 (CQ-resistant strain) IC50
[13] = Plasmodium falciparum, D6; 48 h incubation; mean ± SEM of duplicates; NA = not active at highest concentration tested (50 μM inhibitors, 500 nM CQ); read-out: P. falciparum D6 (CQ-sensitive strain) IC50
[14] = Plasmodium falciparum, D6; 72 h incubation; mean ± SEM of duplicates; NA = not active at highest concentration tested (50 μM inhibitors, 500 nM CQ); read-out: P. falciparum D6 (CQ-sensitive strain) IC50
[15] = W2, 48-120 h, read-out: IC50 against PfW2
[16] = Plasmodium falciparum, D6, 48 h; read-out: IC90 against PfD6 (concentration almost equivalent to IC90)
[17] = Plasmodium falciparum, D6; 48-120 h; read-out: IC50 against PfD6
[18] = Plasmodium falciparum, D6; 96 h incubation; mean ± SEM of duplicates; NA = not active at highest concentration tested (50 μM inhibitors, 500 nM CQ); read-out: P. falciparum D6 (CQ-sensitive strain) IC50
[19] = Plasmodium falciparum, D6; 120 h incubation; mean ± SEM of duplicates; NA = not active at highest concentration tested (50 μM inhibitors, 500 nM CQ); read-out: P. falciparum D6 (CQ-sensitive strain) IC50

Row | Structure (SMILES) | IC50 [1, 9] [µM] | IC50 [1, 10] [µM] | IC50 [1, 11] [µM] | IC50 [1, 12] [µM] | IC50 [2, 13] [µM] | IC50 [2, 14] [µM] | IC50 [1, 15] [µM] | IC90 [2, 16] [µM] | IC50 [2, 17] [µM] | IC50 [2, 18] [µM] | IC50 [2, 19] [µM] | effect on parasitemia as compared to vehicle control ([3]; 40 h post-treatment) | overall parasitemia [3, 7] [%] | overall parasitemia [3, 8] [%] | IC50 at 48 h [4] [µM] | IC50 at 48 h [5] [µM] | further results
1 | CCN(CC)CCCC(C)Nc1ccnc2cc(Cl)ccc12 (centres unmarked) [Chloroquine] |  |  |  |  |  |  |  |  |  |  |  | significantly decreased the overall parasitemia | 2.40 | 1.92 |  |  | IC50 ([1]; W2, 48 h, read-out: P. falciparum W2 (CQ-resistant strain) IC50): 0.19 ± 0.004 µM; IC50 ([1]; W2, 72 h, read-out: P. falciparum W2 (CQ-resistant strain) IC50): 0.19 ± 0.007 µM; IC50 ([1]; W2, 96 h, read-out: P. falciparum W2 (CQ-resistant strain) IC50): 0.2 ± 0.001 µM; IC50 ([1]; W2, 120 h, read-out: P. falciparum W2 (CQ-resistant strain) IC50): 0.19 ± 0.002 µM; IC90 ([2]; Plasmodium falciparum, D6, 48 h, read-out: IC90 against PfD6 (concentration almost equivalent to IC90)): ~0.05 µM; IC50 ([2]; Plasmodium falciparum, D6, 48 h, read-out: P. falciparum D6 (CQ-sensitive strain) IC50): 0.03 ± 0.001 µM; IC50 ([2]; Plasmodium falciparum, D6, 72 h, read-out: P. falciparum D6 (CQ-sensitive strain) IC50): 0.02 ± 0.004 µM; IC50 ([2]; Plasmodium falciparum, D6, 96 h, read-out: P. falciparum D6 (CQ-sensitive strain) IC50): 0.02 ± 0.001 µM; IC50 ([2]; Plasmodium falciparum, D6, 120 h, read-out: P. falciparum D6 (CQ-sensitive strain) IC50): 0.02 ± 0.001 µM; parasites arrested at ring stage ([3]; 40 and 48 h post-treatment): more than 50%; parasites arrested at ring stage ([3]; 16 h post-treatment): around 50%
2 | O=C1c2ccccc2-c2nc3nonc3nc21 [SMER 3] | 20.6 ± 5.19 | 23.7 ± 3.53 | 45.8 ± 0.09 | 48.6 ± 0.49 | 12.1 ± 0.68 | 49 ± 0.94 |  |  |  |  |  |  |  |  | 16 ± 0.55 | 5.8 ± 0.28 | 
3 | Cc1ccc2ccc(C(Nc3ccccc3)c3ccccc3)c(O)c2n1 (centres unmarked) [NSC 66811] | 28.7 ± 4.01 | 39 ± 2.71 |  |  | 32.2 ± 4.57 | 37 ± 1.8 |  |  |  |  |  |  |  |  |  | 37.8 ± 4.1 | Ki [6]: 0.12 µM
4 | COc1ccc(C2=N[C@@H](c3ccc(Cl)cc3)[C@@H](c3ccc(Cl)cc3)N2C(=O)N2CCNC(=O)C2)c(OC(C)C)c1 (racemic) [Nutlin 3] | 18.6 ± 1.6 | 15.72 ± 0.04 | 15.4 ± 0.54 | 15.6 ± 2.17 | 12.8 ± 1.34 | 19.4 ± 0.34 |  | ~35 |  | 15.9 ± 1.24 | 20 ± 4.52 | significantly reduced |  |  |  | 35.2 ± 2.76 | 

More lines, in order of falling IC50 [1, 9], values ahead:

Row | IC50 [1, 9] [µM] | IC50 [1, 10] [µM] | IC50 [1, 11] [µM] | IC50 [1, 12] [µM] | IC50 [2, 13] [µM] | IC50 [2, 14] [µM] | IC50 [1, 15] [µM] | IC90 [2, 16] [µM] | IC50 [2, 17] [µM] | IC50 [2, 18] [µM] | IC50 [2, 19] [µM] | Structure (SMILES) | effect on parasitemia as compared to vehicle control ([3]; 40 h post-treatment) | overall parasitemia [3, 7] [%] | overall parasitemia [3, 8] [%] | IC50 at 48 h [4] [µM] | IC50 at 48 h [5] [µM] | further results
5 | 2.07 ± 0.22 | 2.63 ± 0.05 | 2.91 ± 0.03 | 3.23 ± 0.03 | 5.24 ± 0.2 | 4.8 ± 0.05 | < 6 |  | < 6 | 3.09 ± 0.08 | 2.52 ± 0.39 | CCc1c2ccccc2c(CSC(=N)N)c2ccccc12 [NSC 146109] |  |  |  | 5.27 ± 0.05 | 1.2 ± 0.28 | 
6 | 1.86 ± 0.03 | 1.74 ± 0.27 | 2.28 ± 0.03 | 2.02 ± 0.36 | 2.17 ± 0.004 | 2.93 ± 0.03 | < 6 | ~5 | < 6 | 1.41 ± 0.03 | 1.46 ± 0.12 | c1ccc2c(CCNc3ccc(Nc4ccncc4)cc3)c[nH]c2c1 [JNJ 26854165, Serdemetan] |  | 1.90 | 1.76 |  | 22.4 ± 0.56 | 
